In test [1] the target is LRRK2 (Homo sapiens, UniProt Q5S007). Kind of test: scanMAX Kinase panel (DiscoverX), % control. Details: purchased DiscoverX. It is filed as binding. Particulars: <35% = active. The procedure:
(§1) Specifically, for Examples 162, 160, 105, 217, 205, 96, 207, 184, 206, 221, 238, and 237 selected among the example compounds of the present invention, it was decided to measure enzyme (kinase) selectivity by DiscoverX, and the experiment was conducted using a panel for scanMAX™ Kinase analysis. At this time, the concentration of the drug treated with the enzyme was 1 uM in DMSO, the control percentage (% control) was determined in the same way as in Equation 1 below, and the results were shown in Table 6 below. [formula] Here, the positive control refers to a compound showing a control percentage of 0%, and the negative control is DMSO, indicating a control percentage of 100%. Also, in the enzyme selectivity of the present invention, if the control percentage for each enzyme was <35% (i.e., less than 35%), it was determined to have activity against the relevant enzyme.

Test [2] addresses LRRK2 (G2019S) (Homo sapiens, UniProt Q5S007, G2019S). Nature of the test: scanMAX Kinase panel (DiscoverX), % control. It is filed as binding. Also noted: purchased DiscoverX. Particulars: <35% = active. The procedure:
as §1

In test [3] the target is T1, TTK (Homo sapiens, UniProt P33981).
T1 sequence (P33981 1-857): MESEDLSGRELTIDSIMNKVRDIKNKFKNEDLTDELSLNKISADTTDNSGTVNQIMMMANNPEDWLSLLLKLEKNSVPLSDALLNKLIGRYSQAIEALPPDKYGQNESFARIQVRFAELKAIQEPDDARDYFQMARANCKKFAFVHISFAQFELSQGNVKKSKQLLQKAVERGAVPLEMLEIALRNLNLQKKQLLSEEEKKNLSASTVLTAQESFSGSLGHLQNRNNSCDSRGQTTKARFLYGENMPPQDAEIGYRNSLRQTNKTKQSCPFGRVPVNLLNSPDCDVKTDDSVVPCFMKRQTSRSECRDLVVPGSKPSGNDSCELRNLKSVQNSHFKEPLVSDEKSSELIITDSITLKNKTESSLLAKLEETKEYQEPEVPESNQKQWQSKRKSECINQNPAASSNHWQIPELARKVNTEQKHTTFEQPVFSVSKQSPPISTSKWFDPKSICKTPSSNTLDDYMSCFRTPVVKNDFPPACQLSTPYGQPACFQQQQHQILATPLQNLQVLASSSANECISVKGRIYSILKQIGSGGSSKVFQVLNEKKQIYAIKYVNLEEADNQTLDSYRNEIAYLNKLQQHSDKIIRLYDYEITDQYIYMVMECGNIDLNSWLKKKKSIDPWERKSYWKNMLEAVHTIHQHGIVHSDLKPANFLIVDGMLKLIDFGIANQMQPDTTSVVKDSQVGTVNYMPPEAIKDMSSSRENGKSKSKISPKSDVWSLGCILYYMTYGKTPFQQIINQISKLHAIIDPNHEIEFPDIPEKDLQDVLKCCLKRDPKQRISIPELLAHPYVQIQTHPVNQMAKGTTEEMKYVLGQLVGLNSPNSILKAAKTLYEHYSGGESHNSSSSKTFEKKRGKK
Kind of test: scanMAX Kinase panel (DiscoverX), % control. It is filed as binding. Details: purchased DiscoverX. Particulars: <35% = active. The procedure: as §1

The target of test [4] is T2, LRRK2, LRRK2 (G2019S), DYRK1, CLK1 and TTK kinases (Homo sapiens, UniProt Q13627).
T2 construct: other: DYRK1; Kinase HotSpot service (Reaction Biology), ATP 10 uM
Kind of test: Enzyme IC50 by Kinase HotSpot service (Reaction Biology Corporation), values marked with *. It is filed as biochemical. The following applies: DYRK1, ATP 10 uM. The essentials:
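Radiometric-service kinase assays (Reaction Biology HotSpot protocol) run at 10 uM ATP under uniform conditions. Compounds tested as 3-fold dilution series from a top concentration of […] to give IC50.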

In test [5] the target is T3, DYRK1A (Homo sapiens, UniProt Q13627).
T3 construct: purchased DiscoverX
Kind of test: scanMAX Kinase panel (DiscoverX), % control. It is filed as binding. The following applies: <35% = active. The procedure: as §1

The subject of test [6] is SHP-77. Nature of the test: SHP-77 cancer cell proliferation inhibition (Cell Titer-Glo). It is filed as cell-based. The following applies: Homo sapiens, SHP77, SHP-77 small cell lung cancer cell line, 72 hours. The essentials:
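GI50 comes from CellTiter-Glo luminescence, read 10 min after reagent addition at RT, following 72 h compound treatment. Eleven concentrations were used (⅓ steps, highest 10 μM final) on 2000 cells/well. MDA-MB-231 and MDA-MB-468 were grown in DMEM, SHP-77 in RPMI.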
(In general: In ATP-based viability assays light output follows the ATP content of the culture.)

The structures appear in SMILES notation.

Sequence of LRRK2 (Q5S007 whole entry): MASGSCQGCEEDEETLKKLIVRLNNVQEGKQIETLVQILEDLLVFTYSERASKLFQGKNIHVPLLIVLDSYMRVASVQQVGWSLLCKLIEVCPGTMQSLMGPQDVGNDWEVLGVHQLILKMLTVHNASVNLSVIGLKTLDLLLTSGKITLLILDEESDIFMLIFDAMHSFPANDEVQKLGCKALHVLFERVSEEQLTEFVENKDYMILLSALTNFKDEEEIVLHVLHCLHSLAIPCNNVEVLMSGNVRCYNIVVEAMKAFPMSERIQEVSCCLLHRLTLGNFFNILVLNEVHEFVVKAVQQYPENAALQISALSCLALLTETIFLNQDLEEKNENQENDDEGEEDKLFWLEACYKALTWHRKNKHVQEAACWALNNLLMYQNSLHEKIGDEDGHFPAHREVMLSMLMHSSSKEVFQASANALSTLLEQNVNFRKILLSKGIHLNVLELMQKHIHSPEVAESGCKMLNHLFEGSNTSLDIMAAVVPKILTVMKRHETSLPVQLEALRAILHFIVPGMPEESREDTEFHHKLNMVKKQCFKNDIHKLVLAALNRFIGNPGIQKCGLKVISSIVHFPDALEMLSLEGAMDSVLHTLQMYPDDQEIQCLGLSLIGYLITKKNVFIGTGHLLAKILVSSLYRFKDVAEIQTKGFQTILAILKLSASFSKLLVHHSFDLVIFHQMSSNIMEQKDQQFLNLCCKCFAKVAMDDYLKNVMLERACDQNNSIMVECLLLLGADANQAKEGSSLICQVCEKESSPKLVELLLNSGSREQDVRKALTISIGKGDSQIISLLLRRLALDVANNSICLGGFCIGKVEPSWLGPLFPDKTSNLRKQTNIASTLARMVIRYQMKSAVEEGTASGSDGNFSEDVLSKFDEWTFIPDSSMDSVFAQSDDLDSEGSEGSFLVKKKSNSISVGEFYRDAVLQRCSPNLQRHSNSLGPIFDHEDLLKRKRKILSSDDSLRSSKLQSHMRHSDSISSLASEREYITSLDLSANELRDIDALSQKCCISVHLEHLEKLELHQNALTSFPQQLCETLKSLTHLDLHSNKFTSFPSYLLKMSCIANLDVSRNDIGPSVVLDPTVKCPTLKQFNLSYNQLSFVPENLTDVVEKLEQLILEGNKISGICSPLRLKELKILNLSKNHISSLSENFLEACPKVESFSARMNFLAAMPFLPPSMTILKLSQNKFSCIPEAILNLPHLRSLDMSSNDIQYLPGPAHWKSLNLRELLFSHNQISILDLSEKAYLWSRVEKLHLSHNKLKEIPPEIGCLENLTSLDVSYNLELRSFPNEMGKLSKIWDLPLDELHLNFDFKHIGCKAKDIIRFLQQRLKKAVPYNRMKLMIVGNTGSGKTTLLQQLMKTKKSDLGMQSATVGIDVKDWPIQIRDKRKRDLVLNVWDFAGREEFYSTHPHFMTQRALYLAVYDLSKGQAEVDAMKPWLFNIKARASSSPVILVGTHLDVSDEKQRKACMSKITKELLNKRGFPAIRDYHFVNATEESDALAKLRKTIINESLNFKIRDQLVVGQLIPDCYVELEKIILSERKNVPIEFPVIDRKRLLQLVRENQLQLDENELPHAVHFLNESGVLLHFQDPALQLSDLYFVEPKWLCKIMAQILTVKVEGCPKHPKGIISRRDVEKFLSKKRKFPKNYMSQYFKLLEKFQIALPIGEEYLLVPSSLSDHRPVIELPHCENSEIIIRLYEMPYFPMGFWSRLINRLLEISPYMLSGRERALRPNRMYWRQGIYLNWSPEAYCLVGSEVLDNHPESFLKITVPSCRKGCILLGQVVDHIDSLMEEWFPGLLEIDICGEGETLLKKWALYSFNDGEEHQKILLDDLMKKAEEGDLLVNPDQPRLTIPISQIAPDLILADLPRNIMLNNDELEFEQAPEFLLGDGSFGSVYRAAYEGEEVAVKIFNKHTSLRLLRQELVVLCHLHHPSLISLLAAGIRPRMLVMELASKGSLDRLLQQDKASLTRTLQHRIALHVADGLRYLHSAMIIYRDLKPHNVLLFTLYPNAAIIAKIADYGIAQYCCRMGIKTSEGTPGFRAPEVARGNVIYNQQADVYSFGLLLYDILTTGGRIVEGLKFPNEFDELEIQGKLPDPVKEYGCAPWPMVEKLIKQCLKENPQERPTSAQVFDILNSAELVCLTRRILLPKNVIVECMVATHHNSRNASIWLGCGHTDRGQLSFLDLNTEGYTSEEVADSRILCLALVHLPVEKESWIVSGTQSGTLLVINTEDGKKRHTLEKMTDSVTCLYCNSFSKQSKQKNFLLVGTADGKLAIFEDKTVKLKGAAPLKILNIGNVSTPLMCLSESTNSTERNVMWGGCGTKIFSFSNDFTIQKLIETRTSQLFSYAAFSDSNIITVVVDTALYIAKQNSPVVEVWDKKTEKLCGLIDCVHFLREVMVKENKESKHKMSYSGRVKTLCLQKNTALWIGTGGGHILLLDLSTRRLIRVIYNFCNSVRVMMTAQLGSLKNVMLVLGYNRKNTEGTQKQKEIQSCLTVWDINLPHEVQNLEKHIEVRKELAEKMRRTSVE
Sequence of LRRK2 (G2019S) (Q5S007 whole entry G2019S): as the sequence (Q5S007 whole entry) above, with G2019S counted along it

On to `CNc1cc(Nc2ccc(S(=O)(=O)N3CCC(N4CCOCC4)CC3)cc2OC)nc2[nH]cc(C(F)(F)F)c12` [Example 184, N^6-(2-methoxy-4-((4-morpholinopiperidin-1-yl)sulfonyl)phenyl)-N^4-methyl-3-(trifluoromethyl)-1H-pyrrolo[2,3-b]pyridine-4,6-diamine], for which the remaining binding at 1 µM in test [1] was 3.8%; in test [2] it was 3.2%; in test [3], 0.35%; in test [5], 0.1%. In test [4], the IC50 was below 100 nM. In addition, the GI50 in test [6] is 101 to 300 nM.

On to `O=C(c1ccc(Nc2cc(C3CC3)c3c(C(F)(F)F)c[nH]c3n2)c2c1CCO2)N1CC[C@H](N2CCOCC2)C1` [Example 237, (S)-(7-((4-cyclopropyl-3-(trifluoromethyl)-1H-pyrrolo[2,3-b]pyridin-6-yl)amino)-2,3-dihydrobenzofuran-4-yl)(3-morpholinopyrrolidin-1-yl)methanone], for which the remaining binding at 1 µM in test [1] was 36%; in test [2], 31%; in test [3], 3.5%; in test [5], 2.2%. In addition, the IC50 in test [4] was below 100 nM.

With `O=C(c1ccc(Nc2cc(C3CC3)c3c(C(F)(F)F)c[nH]c3n2)c2c1CCO2)N1CC[C@@H](N2CCOCC2)C1` [Example 238, (R)-(7-((4-cyclopropyl-3-(trifluoromethyl)-1H-pyrrolo[2,3-b]pyridin-6-yl)amino)-2,3-dihydrobenzofuran-4-yl)(3-morpholinopyrrolidin-1-yl)methanone], the remaining binding at 1 µM in test [1] amounted to 48%; in test [2], 38%; in test [3] it was 4.1%; in test [5] it was 1.9%. The half-maximal inhibitory concentration (IC50) in test [4] was below 100 nM.

What is called IC50 is the concentration needed to halve the response being measured. For orientation: GI50 means the concentration giving 50% growth inhibition.

These data come from patent US12240844B2 (Voronoi, Inc., priority 2019, dated 2025).
